Laboratory results taken from the NIST ThermoML archive (doi:10.1016/j.jct.2005.12.007).
± gives the expanded uncertainty stated by the source.

conditions: 298.15 K; 101.33 kPa; Liquid; Capillary tube (Ostwald / Ubbelohde) method

viscosity [mPa·s] | SMILES
0.486 ± 0.007 | CCCCN [1-butanamine]
0.821 ± 0.008 | CCCCNCCCC [dibutylamine]
1.258 ± 0.012 | CCCCN(CCCC)CCCC [tributylamine]

same assay, conditions: 298.15 K; 101.33 kPa; Liquid; Pycnometric method

mass density [kg/m3] | SMILES
733.3 ± 1 | CCCCN [1-butanamine]
757.53 ± 0.74 | CCCCNCCCC [dibutylamine]
773.56 ± 0.76 | CCCCN(CCCC)CCCC [tributylamine]

same assay, conditions: 298.15 K; 101.33 kPa; Liquid; Sing-around technique in a fixed-path interferometer

speed of sound [m/s] | SMILES
1249.7 ± 2.2 | CCCCN [1-butanamine]
1243.4 ± 1.4 | CCCCNCCCC [dibutylamine]
1245.3 ± 1.4 | CCCCN(CCCC)CCCC [tributylamine]
